From patent publication EP0563814A2, “Carbonic acid esters of 2-amino-7-(1,3-dihydroxy-2-propoxymethyl)purines, their preparation and their use as antiviral agents” (HOECHST AKTIENGESELLSCHAFT, priority 1992, dated 1993)
Read-outs that look alike come from different tables or passages of the source.

Experiments:
[1] = test system: Herpes simplex 1 Virus (HSV-1); experiment: Activity against systemic HSV-1 infection in the NMRI mouse, oral treatment; type: in vivo, NMRI-Mäuse; details: i.p. infection, observation two weeks
Text: Wirkung gegen systemische Herpes simplex 1 Virus (HSV-1) Infektion: NMRI-Mäuse, spezifisch pathogenfrei, im Gewicht von 15-18 g wurden intraperitoneal mit HSV-1 infiziert und anschließend mit den erfindungsgemäßen Verbindungen oral therapiert. Die Behandlung erfolgte erstmals 3 Stunden nach der Infektion und wurde zweimal täglich über 4 Tage fortgesetzt. Der Behandlungserfolg wurde anhand des Krankheitsverlaufes und der Überlebensrate gegenüber der unbehandelten Infektionskontrolle bestimmt. Letztere erhielt anstelle der erfindungsgemäßen Verbindungen physiologische Kochsalzlösung appliziert. Die Beobachtungszeit betrug zwei Wochen. Tabelle 1 zeigt die Ergebnisse dieser Untersuchung. Tabelle 1

[2] = Oral bioavailability in the mouse; type: in vivo, Maus; details: for AUC(0-inf): analyte Formel 1', read-out: AUD (0-->oo) (converted)
Text: Folgende Bioverfügbarkeiten der Verbindungen der Formel 1' wurden bei Mäusen nach oraler Gabe der erfindungsgemäßen Verbindungen ermittelt: […]

Bioverfügbarkeit ([2]; i.v., 25 mg/kg, availability of Formel 1') [%] | AUC(0-inf) ([2]; in vivo, iv, 25 mg/kg) [ng·h/mL] | AUC(0-inf) ([2]; in vivo, po, 100 mg/kg) [ng·h/mL] | bioavailability ([2]; in vivo, po, 100 mg/kg, availability of Formel 1', read-out: Bioverfügbarkeit) [%] | Structure (SMILES) | mittlere Überlebenszeit (Tage) ([1]; 9 x 10 µmol/kg) | Überlebende/ Gruppengröße ([1]; 9 x 10 µmol/kg) | mittlere Überlebenszeit (Tage) ([1]; 9 x 30 µmol/kg) | Überlebende/ Gruppengröße ([1]; 9 x 30 µmol/kg) | mittlere Überlebenszeit (Tage) ([1]; 9 x 100 µmol/kg) | Überlebende/ Gruppengröße ([1]; 9 x 100 µmol/kg)
 |  |  |  | CC(=O)OCC(COC(C)=O)OCn1cnc2nc(N)ncc21 [Beispiel 1, 2-Amino-7-[(1,3-bis-acetoxy-2-propoxy)methyl]purin] | > 14 | 5/5 | > 14 | 5/5 | > 14 | 5/5
 |  |  |  | CCCC(=O)OCC(COC(=O)CCC)OCn1cnc2nc(N)ncc21 [Beispiel 2, 2-Amino-7-[(1,3-bis-butyryloxy-2-propoxy)methyl]purin] |  |  |  | 5/5 |  | 5/5
 |  |  |  | CCC(=O)OCC(COC(=O)CC)OCn1cnc2nc(N)ncc21 [Beispiel 3, 2-Amino-7-[(1,3-bis-propionyloxy-2-propoxy)methyl]purin] |  |  |  | 5/5 |  | 5/5
100 | 223 | 154 | 17.2 | Nc1ncc2c(ncn2COC(CO)CO)n1 [Formel 1', 2-Amino-7-[(1,3-dihydroxy-2-propoxy)methyl]purin, reference compound] | 10.5 ± 0.7 | 3/5 | 9.5 ± 1.3 | 1/5 |  | 5/5
